# In patent US9896418B2, “Aryl ethers and uses thereof” (Peloton Therapeutics, Inc., priority 2013, dated 2018):
# Tested on: HIF-2α HIS TAG-PASB Domain
# Assay: HIF-2α Scintillation Proximity Assay (SPA)
# Format: binding
# Procedure: The percent inhibition was determined and IC50 values were calculated using the Dotmatics system based on the following equation: % inhibition=[(high control−sample)/(high control−low control)]×100.
row,SMILES,IC50 [nM]
1,"CS(=O)(=O)c1ccc(Oc2cc(F)cc(C#N)c2)c2c1[C@H](O)[C@H](F)[C@@H]2O [Compound 296, 3-fluoro-5-[(1S,2R,3R)-2-fluoro-1,3-dihydroxy-7-methylsulfonyl-indan-4-yl]oxy-benzonitrile]",1300
2,"N#CN=S(=O)(c1ccc(Oc2cc(F)cc(C#N)c2)c2c1[C@H](O)[C@H](F)C2)C(F)F (stereo partly drawn) [Compound 297, N-(((2R,3S)-7-(3-cyano-5-fluorophenoxy)-2-fluoro-3-hydroxy-2,3-dihydro-1H-inden-4-yl)(difluoromethyl)(oxo)-λ^6-sulfanylidene)cyanamide]",12400
3,"C[C@]1(F)Cc2c(Oc3cc(F)cc(C#N)c3)ccc(S(C)(=O)=O)c2[C@@H]1O [Compound 298, 3-fluoro-5-(((1S,2S)-2-fluoro-1-hydroxy-2-methyl-7-(methylsulfonyl)-2,3-dihydro-1H-inden-4-yl)oxy)benzonitrile]",16100
4,"N#CN=S(=O)(c1ccc(Oc2cc(F)cc(C#N)c2)c2c1[C@H](O)[C@H](F)C2)C(F)F (stereo partly drawn) [Compound 299, N-(((2R,3S)-7-(3-cyano-5-fluorophenoxy)-2-fluoro-3-hydroxy-2,3-dihydro-1H-inden-4-yl)(difluoromethyl)(oxo)-λ^6-sulfanylidene)cyanamide]",16100
5,C[C@@]1(F)Cc2c(Oc3cc(F)cc(C#N)c3)ccc(S(C)(=O)=O)c2[C@@H]1O [Compound 300],2030
6,"C[C@@H]1Cc2c(Oc3cc(F)cc(C#N)c3)ccc(S(C)(=O)=O)c2[C@@H]1O [Compound 301, 3-fluoro-5-(((1R,2R)-1-hydroxy-2-methyl-7-(methylsulfonyl)-2,3-dihydro-1H-inden-4-yl)oxy)benzonitrile]",1900
7,"CS(=O)(=O)c1ccc(Oc2cc(F)cc(C#N)c2)c2c1[C@H](O)C(F)(F)[C@H]2O [Compound 311, 3-[(1S,3S)-2,2-difluoro-1,3-dihydroxy-7-methylsulfonyl-indan-4-yl]oxy-5-fluoro-benzonitrile]",8700
8,"CS(=O)(=O)c1ccc(Oc2cc(F)cc(C#N)c2)c2c1[C@H](O)C(F)(F)[C@@H]2O [Compound 312, 3-[(1S,3R)-2,2-difluoro-1,3-dihydroxy-7-methylsulfonyl-indan-4-yl]oxy-5-fluoro-benzonitrile]",150
9,"CS(=O)(=O)c1ccc(Oc2cncc(C#N)c2)c2c1[C@H](O)[C@H](F)C2 [Compound 313, 5-(((1S,2R)-2-fluoro-1-hydroxy-7-(methylsulfonyl)-2,3-dihydro-1H-inden-4-yl)oxy)nicotinonitrile]",1800
10,"CS(=O)(=NC#N)c1ccc(Oc2cc(F)cc(C#N)c2)c2c1[C@H](O)C(F)(F)[C@H]2F (stereo partly drawn) [Compound 318, [[(1S,3S)-7-(3-cyano-5-fluoro-phenoxy)-1,2,2-trifluoro-3-hydroxy-indan-4-yl]-methyl-oxo-λ^6-sulfanylidene]cyanamide]",2380
11,"CS(=O)(=O)c1ccc(Oc2cncc(Br)c2)c2c1C(=O)C(F)(F)C2 [Compound 323, 4-((5-Bromopyridin-3-yl)oxy)-2,2-difluoro-7-(methylsulfonyl)-2,3-dihydro-1H-inden-1-one]",5250
12,"CS(=O)(=O)c1ccc(Oc2cncc(Br)c2)c2c1[C@H](O)C(F)(F)C2 [Compound 324, (S)-4-((5-Bromopyridin-3-yl)oxy)-2,2-difluoro-7-(methylsulfonyl)-2,3-dihydro-1H-inden-1-ol]",54
13,"CS(=O)(=O)c1ccc(Oc2cncc(C#N)c2)c2c1[C@H](O)C(F)(F)C2 [Compound 325, (S)-5-((2,2-Difluoro-1-hydroxy-7-(methylsulfonyl)-2,3-dihydro-1H-inden-4-yl)oxy)nicotinonitrile]",180
14,"CS(=O)(=O)c1ccc(Oc2cncc(Br)c2)c2c1[C@H](O)[C@H](F)C2 [Compound 326, (1S,2R)-4-((5-Bromopyridin-3-yl)oxy)-2-fluoro-7-(methylsulfonyl)-2,3-dihydro-1H-inden-1-ol]",1280
15,"CS(=O)(=O)c1ccc(Oc2ccc(F)c(C#N)c2)c2c1[C@H](O)C(F)(F)[C@@H]2F [Compound 327, 2-Fluoro-5-(((1S,3R)-2,2,3-trifluoro-1-hydroxy-7-(methylsulfonyl)-2,3-dihydro-1H-inden-4-yl)oxy)benzonitrile]",28
16,"CS(=O)(=O)c1ccc(Oc2cncc(Br)c2)c2c1[C@H](O)[C@H](F)[C@@H]2F [Compound 328, (1S,2S,3R)-4-((5-Bromopyridin-3-yl)oxy)-2,3-difluoro-7-(methylsulfonyl)-2,3-dihydro-1H-inden-1-ol]",32
17,"CS(=O)(=O)c1ccc(Oc2cncc(F)c2)c2c1[C@H](O)C(F)(F)[C@@H]2F [Compound 329, (1S,3R)-2,2,3-trifluoro-4-((5-fluoropyridin-3-yl)oxy)-7-(methylsulfonyl)-2,3-dihydro-1H-inden-1-ol]",< 5
18,"CS(=O)(=O)c1ccc(Oc2cncc(F)c2)c2c1[C@H](O)C(F)(F)[C@H]2F [Compound 330, (1S,3S)-2,2,3-trifluoro-4-((5-fluoropyridin-3-yl)oxy)-7-(methylsulfonyl)-2,3-dihydro-1H-inden-1-ol]",2090
19,"CS(=O)(=O)c1ccc(Oc2cncc(Cl)c2)c2c1[C@H](O)C(F)(F)[C@@H]2F [Compound 331, (1S,3R)-4-((5-chloropyridin-3-yl)oxy)-2,2,3-trifluoro-7-(methylsulfonyl)-2,3-dihydro-1H-inden-1-ol]",7

row,SMILES,IC50 [nM]
1,"CS(=O)(=O)c1ccc(Oc2cncc(Cl)c2)c2c1[C@H](O)C(F)(F)[C@H]2F [Compound 332, (1S,3S)-4-((5-chloropyridin-3-yl)oxy)-2,2,3-trifluoro-7-(methylsulfonyl)-2,3-dihydro-1H-inden-1-ol]",2330
2,"CS(=O)(=O)c1ccc(Oc2cncc(C#N)c2)c2c1[C@H](O)[C@H](F)[C@@H]2F [Compound 333, 5-(((1S,2S,3R)-2,3-difluoro-1-hydroxy-7-(methylsulfonyl)-2,3-dihydro-1H-inden-4-yl)oxy)nicotinonitrile]",74
3,"N#Cc1cc(F)cc(Oc2ccc(S(N)(=O)=O)c3c2C[C@@H](F)[C@H]3O)c1 [Compound 334, (2R,3S)-7-(3-cyano-5-fluoro-phenoxy)-2-fluoro-3-hydroxy-indane-4-sulfonamide]",73
4,"N#Cc1cc(F)cc(Oc2ccc(S(N)(=O)=O)c3c2[C@@H](O)C(F)(F)[C@H]3O)c1 [Compound 337, (1R,3S)-7-(3-cyano-5-fluoro-phenoxy)-2,2-difluoro-1,3-dihydroxy-indane-4-sulfonamide]",3670
5,"N#Cc1cncc(Oc2ccc(S(N)(=O)=O)c3c2[C@@H](F)C(F)(F)[C@H]3O)c1 [Compound 340, (1R,3S)-7-[(5-cyano-3-pyridyl)oxy]-1,2,2-trifluoro-3-hydroxy-indane-4-sulfonamide]",24
6,"NS(=O)(=O)c1ccc(Oc2cncc(F)c2)c2c1[C@H](O)C(F)(F)[C@@H]2F [Compound 341, (1R,3S)-1,2,2-trifluoro-7-[(5-fluoro-3-pyridyl)oxy]-3-hydroxy-indane-4-sulfonamide]",18
7,"CS(=O)(=O)c1ccc(Oc2cncc(C#N)c2)c2c1[C@H](O)C(F)(F)[C@@H]2F [Compound 342, 5-(((1S,3R)-2,2,3-trifluoro-1-hydroxy-7-(methylsulfonyl)-2,3-dihydro-1H-inden-4-yl)oxy)nicotinonitrile]",40
8,"CS(=O)(=O)c1ccc(Oc2cncc(C#N)c2)c2c1[C@H](O)C(F)(F)[C@H]2F [Compound 343, 5-(((1S,3S)-2,2,3-trifluoro-1-hydroxy-7-(methylsulfonyl)-2,3-dihydro-1H-inden-4-yl)oxy)nicotinonitrile]",23900
9,"N#Cc1cncc(Oc2ccc(S(=O)(=O)CF)c3c2[C@@H](F)C(F)(F)[C@H]3O)c1 [Compound 344, 5-(((1S,3R)-2,2,3-trifluoro-7-((fluoromethyl)sulfonyl)-1-hydroxy-2,3-dihydro-1H-inden-4-yl)oxy)nicotinonitrile]",6.7
10,"N#Cc1cncc(Oc2ccc(S(=O)(=O)CF)c3c2[C@H](F)C(F)(F)[C@H]3O)c1 [Compound 345, 5-(((1S,3S)-2,2,3-trifluoro-7-((fluoromethyl)sulfonyl)-1-hydroxy-2,3-dihydro-1H-inden-4-yl)oxy)nicotinonitrile]",2180
11,CS(=O)(=O)c1ccc(Oc2cc(F)cc(C#N)c2)c2c1[C@H](N)C(F)(F)[C@@H]2F [Compound 346],515
12,"N#Cc1cncc(Oc2ccc(S(=O)(=O)C(F)F)c3c2CC(F)(F)[C@H]3O)c1 [Example 27, (S)-5-((7-((Difluoromethyl)sulfonyl)-2,2-difluoro-1-hydroxy-2,3-dihydro-1H-inden-4-yl)oxy)nicotinonitrile]",250
13,"O=S(=O)(c1ccc(Oc2cc(F)cc(F)c2)c2c1[C@H](O)CC2)C(F)(F)F [Example 55, (R)-4-(3,5-Difluorophenoxy)-7-((trifluoromethyl)sulfonyl)-2,3-dihydro-1H-inden-1-ol]",< 5
14,"O[C@@H]1CCc2c(Oc3cc(F)cc(F)c3)ccc(C(F)(F)F)c21 [Example 58, (R)-4-(3,5-Difluorophenoxy)-7-(trifluoromethyl)-2,3-dihydro-1H-inden-1-ol]",< 5
15,"CS(=O)(=O)c1ccc(Oc2cncc(Cl)c2)c2c1[C@H](O)C(F)(F)C2 [Example 115, (S)-4-((5-Chloropyridin-3-yl)oxy)-2,2-difluoro-7-(methylsulfonyl)-2,3-dihydro-1H-inden-1-ol]",350
16,"CS(=O)(=O)c1ccc(Oc2cc(F)cc(Cl)c2)c2c1[C@H](O)C(F)(F)C2 [Example 160, (1S)-4-(3-Chloro-5-fluoro-phenoxy)-2,2-difluoro-7-methylsulfonyl-indan-1-ol]",< 5
17,"N#Cc1cc(F)cc(Oc2ccc(S(=O)(=O)C(F)(F)F)c3c2CC(F)(F)[C@H]3O)c1 [Example 185, (S)-3-((2,2-Difluoro-1-hydroxy-7-((trifluoromethyl)sulfonyl)-2,3-dihydro-1H-inden-4-yl)oxy)-5-fluorobenzonitrile]",< 5
18,"O=S(=O)(c1ccc(Oc2cncc(Cl)c2)c2c1[C@H](O)C(F)(F)C2)C(F)(F)F [Example 186, (S)-4-((5-Chloropyridin-3-yl)oxy)-2,2-difluoro-7-((trifluoromethyl)sulfonyl)-2,3-dihydro-1H-inden-1-ol]",< 5
